{"source": "patent US20260217720A1", "about": "“COMPOSITIONS USEFUL FOR MODULATING SPLICING” (Skyhawk Therapeutics, Inc., priority 2023, published 2026)", "key": {"total ATXN3 protein": {"tested_on": "total ATXN3 protein", "test": "ATXN3 Total Protein Assay (MSD)", "assay_type": "cell-based, Human", "conditions": "SK-N-MC cells, 48 hours incubation, read-out: ATXN3 Potency - Protein IC50", "description": "Human neuroblastoma SK-N-MC cells were seeded at 10,000 cells/well in 384 well plates one day prior to compound treatment. The concentrations of compounds were tested at appropriate doses ranging from 30 μM to 0.6 nM. After incubation for 48 hours, the cells were lysed with 25 μL of lysis buffer containing protease inhibitors, and total ATXN3 protein levels were assessed by Mesoscale Discovery (MSD) assay developed with one pair of anti-ATXN3 antibodies. The capture and detect antibodies were raised in mouse and rabbit respectively. Anti-rabbit MSD-ST antibody was used for secondary antibody.\nATXN3 recombinant protein was used for standards. The readouts were captured with 35 μL of MSD read buffer and multi-array 384-well high binding plates."}, "[1]": {"tested_on": "ATXN3 transcripts containing exon 4", "test": "ATXN3 Quantitative Splicing Assay (qPCR, E4E5 primers/probe)", "assay_type": "cell-based", "conditions": "Homo sapiens, SK-N-MC cells, 24 h treatment, read-out: ATXN3 Potency - Splicing E4E5 IC50 Mean", "description": "Human neuroblastoma SK-N-MC cells were plated in 384-well plates at 20,000 cells/well. Twenty-four hours after plating, cells were treated with compounds for 24 h at appropriate concentrations ranging from 30 μM to 0.6 nM (0.3% DMSO). Treated cells were lysed in 15 μL of lysis buffer, and cDNA was synthesized using the Fast Advanced Cells-to-Ct kit. Two μL of each cDNA was used in qPCR reactions to confirm the exon 4 skipped transcripts of ATXN3. A second set of primers/probe E4E5 was used to detect the transcripts containing exon 4. The third set of primers/probe E8E9 was used to detect total gene level of ATXN3. The qPCR reactions were prepared in 384-well plates in 10 μL volume, using TaqMan™ Fast Advanced Master Mix with primers and probes shown in the table below. Reactions were run in a Quant Studio 6 qPCR instrument with default settings.\nThe primers and probes are listed below in Table 3."}}, "data": [{"compound": "Cc1c(C[C@H](C)N)cc2c(NCc3cccs3)cc(Cl)nn12", "note": "[Compound 1, (S)-6-(2-aminopropyl)-2-chloro-7-methyl-N-(thiophen-2-ylmethyl)pyrrolo[1,2-b]pyridazin-4-amine]", "values": [{"measurement": "IC50", "setting": "total ATXN3 protein", "result": "101 to 500", "unit": "nM"}, {"measurement": "IC50", "setting": "[1]", "result": "101 to 500", "unit": "nM"}]}, {"compound": "C[C@H](N)Cc1cc2c(NCc3cccs3)cc(Cl)nn2c1Cl", "note": "[Compound 2, (S)-6-(2-aminopropyl)-2,7-dichloro-N-(thiophen-2-ylmethyl)pyrrolo[1,2-b]pyridazin-4-amine]", "values": [{"measurement": "IC50", "setting": "[1]", "result": "0.01 to 100", "unit": "nM"}]}, {"compound": "COC[C@H](N)Cc1cc2c(NCc3cccs3)cc(Cl)nn2c1C", "note": "[Compound 3, (R)-6-(2-amino-3-methoxypropyl)-2-chloro-7-methyl-N-(thiophen-2-ylmethyl)pyrrolo[1,2-b]pyridazin-4-amine]", "values": [{"measurement": "IC50", "setting": "[1]", "result": "501 to 5000", "unit": "nM"}]}, {"compound": "C[C@H](F)[C@H](N)Cc1cc2c(NCc3cccs3)cc(Cl)nn2c1", "note": "[Compound 4, 6-((2R,3S)-2-amino-3-fluorobutyl)-2-chloro-N-(thiophen-2-ylmethyl)pyrrolo[1,2-b]pyridazin-4-amine]", "values": [{"measurement": "IC50", "setting": "[1]", "result": "101 to 500", "unit": "nM"}]}, {"compound": "Cc1c(C[C@@H](N)CF)cc2c(NCc3cccs3)cc(Cl)nn12", "note": "[Compound 5, (R)-6-(2-amino-3-fluoropropyl)-2-chloro-7-methyl-N-(thiophen-2-ylmethyl)pyrrolo[1,2-b]pyridazin-4-amine]", "values": [{"measurement": "IC50", "setting": "total ATXN3 protein", "result": "101 to 500", "unit": "nM"}, {"measurement": "IC50", "setting": "[1]", "result": "501 to 5000", "unit": "nM"}]}, {"compound": "Cc1c(C[C@@H](N)[C@H](C)F)cc2c(NCc3cccs3)cc(Cl)nn12", "note": "[Compound 6, 6-((2R,3S)-2-amino-3-fluorobutyl)-2-chloro-7-methyl-N-(thiophen-2-ylmethyl)pyrrolo[1,2-b]pyridazin-4-amine]", "values": [{"measurement": "IC50", "setting": "total ATXN3 protein", "result": "101 to 500", "unit": "nM"}, {"measurement": "IC50", "setting": "[1]", "result": "101 to 500", "unit": "nM"}]}, {"compound": "N[C@@H](CF)Cc1cc2c(NCc3cccs3)cc(Cl)nn2c1", "note": "[Compound 7, (R)-6-(2-amino-3-fluoropropyl)-2-chloro-N-(thiophen-2-ylmethyl)pyrrolo[1,2-b]pyridazin-4-amine]", "values": [{"measurement": "IC50", "setting": "[1]", "result": "101 to 500", "unit": "nM"}]}, {"compound": "Cc1c(C[C@@H](N)CO)cc2c(NCc3cccs3)cc(Cl)nn12", "note": "[Compound 8, (R)-2-amino-3-(2-chloro-7-methyl-4-((thiophen-2-ylmethyl)amino)pyrrolo[1,2-b]pyridazin-6-yl) propan-1-ol]", "values": [{"measurement": "IC50", "setting": "[1]", "result": "0.01 to 100", "unit": "nM"}]}, {"compound": "N[C@@H](COC(F)F)Cc1cc2c(NCc3cccs3)cc(Cl)nn2c1Cl", "note": "[Compound 9, (R)-6-(2-amino-3-(difluoromethoxy)propyl)-2,7-dichloro-N-(thiophen-2-ylmethyl)pyrrolo[1,2-b]pyridazin-4-amine]", "values": [{"measurement": "IC50", "setting": "[1]", "result": "0.01 to 100", "unit": "nM"}]}, {"compound": "N[C@@H](CF)Cc1cc2c(NCc3cccs3)cc(Cl)nn2c1Cl", "note": "[Compound 10, (R)-6-(2-amino-3-fluoropropyl)-2,7-dichloro-N-(thiophen-2-ylmethyl)pyrrolo[1,2-b]pyridazin-4-amine]", "values": [{"measurement": "IC50", "setting": "[1]", "result": "0.01 to 100", "unit": "nM"}]}, {"compound": "C[C@H](F)[C@H](N)Cc1cc2c(NCc3cccs3)cc(Cl)nn2c1Cl", "note": "[Compound 11]", "values": [{"measurement": "IC50", "setting": "[1]", "result": "0.01 to 100", "unit": "nM"}]}]}
